Source: US12350782B2, “Method for producing stable-phase crystals using physical grinding” (University-Industry Cooperation Group of Kyung Hee …, priority 2021, dated 2025)
Read-outs that look alike come from different tables or passages of the source.

Conditions: for phase-transformed into gamma-glycine: after 24 hours

phase-transformed into gamma-glycine (100 g glass beads 1.7 to 2.0 mm, 300 g group 1, 500 rpm): 100%
gamma-glycine (stable phase crystal) obtained (glass beads 1.7 to 2.0 mm, about 100 to 200 g, 300 rpm, stirred/ground 24-48 hours, groups 1 to 6): 100%
time after which supersaturation of stable phase crystals (gamma-glycine) increased (magnetic bar in propeller stirring device, 300 rpm): about 1,500 minutes
stable phase crystals obtained (magnetic bar stirred/ground at 300 rpm for about 65 hours or more (6,800 minutes)): 100%
stable phase crystal (gamma-glycine) precipitation rate (simple propeller stirrer, no physical grinding, 300 g, 300 rpm, about 15 days, groups 1 to 6 of Table 1): 0%
phase transformation from alpha-glycine to gamma-glycine (zirconia beads 5.0 to 7.0 mm, 100 rpm, 24 hours plus further 48 hours stirring): 100%
phase-transformed into gamma-glycine (zirconia beads 5.0 to 7.0 mm, 300 g group 1, 100 rpm): 0%
SMILES: NCC(=O)O [alpha-glycine, glycine]
